Assay results: ChEMBL document CHEMBL2074523, “Hepatic uptake of cholecystokinin octapeptide by organic anion-transporting polypeptides OATP4 and OATP8 of rat and human liver” (Gastroenterology, 2001)

Key:
[1] = biological target: T1, Solute carrier organic anion transporter family member 1B3 (OATP1B3) (Homo sapiens, UniProt Q9NPD5); assay: (§1) TP_TRANSPORTER: uptake in Xenopus laevis oocytes; conditions: Xenopus laevis oocytes expressing OATP1B3 (SLCO1B3)
T1 sequence (Q9NPD5 whole entry): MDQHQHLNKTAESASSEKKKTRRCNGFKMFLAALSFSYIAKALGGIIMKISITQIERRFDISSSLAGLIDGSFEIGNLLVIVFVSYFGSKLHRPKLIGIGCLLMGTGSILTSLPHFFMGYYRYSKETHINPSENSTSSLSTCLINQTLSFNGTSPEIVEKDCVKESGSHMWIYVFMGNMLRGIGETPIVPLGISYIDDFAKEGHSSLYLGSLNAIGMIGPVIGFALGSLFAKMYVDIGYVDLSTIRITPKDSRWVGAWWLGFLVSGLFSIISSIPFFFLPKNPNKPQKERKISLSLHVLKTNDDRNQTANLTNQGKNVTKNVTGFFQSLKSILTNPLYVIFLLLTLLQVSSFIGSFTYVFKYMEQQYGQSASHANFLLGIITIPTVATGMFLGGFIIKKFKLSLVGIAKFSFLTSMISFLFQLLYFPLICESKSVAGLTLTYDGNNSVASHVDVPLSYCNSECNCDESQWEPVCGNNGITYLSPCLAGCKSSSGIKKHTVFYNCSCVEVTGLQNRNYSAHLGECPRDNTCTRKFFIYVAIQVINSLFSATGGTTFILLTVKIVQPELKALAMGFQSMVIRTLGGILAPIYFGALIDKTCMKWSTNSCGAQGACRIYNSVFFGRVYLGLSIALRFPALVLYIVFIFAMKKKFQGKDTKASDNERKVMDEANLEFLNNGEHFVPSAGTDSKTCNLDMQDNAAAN

[2] = substrate: CSCC[C@H](NC(=O)[C@H](Cc1ccc(OS(=O)(=O)O)cc1)NC(=O)[C@@H](N)CC(=O)O)C(=O)NCC(=O)N[C@@H](Cc1c[nH]c2ccccc12)C(=O)N[C@@H](CCSC)C(=O)N[C@@H](CC(=O)O)C(=O)N[C@@H](Cc1ccccc1)C(N)=O; assay: as §1; type: functional, cell-based, Oocyte

| Molecule | Km [1] [µM] | Km [2] [µM] |
| --- | --- | --- |
| CSCC[C@H](NC(=O)[C@H](Cc1ccc(OS(=O)(=O)O)cc1)NC(=O)[C@@H](N)CC(=O)O)C(=O)NCC(=O)N[C@@H](Cc1c[nH]c2ccccc12)C(=O)N[C@@H](CCSC)C(=O)N[C@@H](CC(=O)O)C(=O)N[C@@H](Cc1ccccc1)C(N)=O [SINCALIDE] | 11.1 | – |
| Solute carrier organic anion transporter family member 1B2 (Rattus norvegicus) (protein) MDHTQQSRKAAEAQPSRSKQTRFCDGFKLFLAALSFSYICKALGGVVMKSSITQIERRFDIPSSISGLIDGGFEIGNLLVIVFVSYFGSKLHRPKLIGIGCFIMGIGSILTALPHFFMGYYKYAKENDIGSLGNSTLTCFINQMTSPTGPSPEIVEKGCEKGLKSHMWIYVLMGNMLRGIGETPIVPLGISYLDDFAKEGHTSMHLGTLHTIAMIGPILGFIMSSVFAKIYVDVGYVDLNSVRITPNDARWVGAWWLSFIVNGLLCITSSIPFFFLPKIPKRSQEERKNSVSLHAPKTDEEKKHMTNLTKQEEQDPSNMTGFLRSLRSILTNEIYVIFLILTLLQVSGFIGSFTYLFKFIEQQFGRTASQANFLLGIITIPTMATAMFLGGYIVKKFKLTSVGIAKFVFFTSSVAYAFQFLYFPLLCENKPFAGLTLTYDGMNPVDSHIDVPLSYCNSDCSCDKNQWEPICGENGVTYISPCLAGCKSFRGDKKPNNTEFYDCSCISNSGNNSAHLGECPRYKCKTNYYFYIILQVTVSFFTAMGSPSLILILMKSVQPELKSLAMGFHSLIIRALGGILAPIYYGAFIDRTCIKWSVTSCGKRGACRLYNSRLFGFSYLGLNLALKTPPLFLYVVLIYFTKRKYKRNDNKTLENGRQFTDEGNPDSVNKNGYYCVPYDEQSNETPL | – | 14.9 |
